From patent US12698342B2, “Therapy for drug-resistant cancer by administration of anti-HER2 antibody/drug conjugate” (DAIICHI SANKYO COMPANY, LIMITED, priority 2016, dated 2026)

Columns and labels:
[1] = tested on: Breast cancer or gastric adenocarcinoma/esophagogastric junction adenocarcinoma; details: human, in vivo
Source text: Open-label, Phase 1 dose escalation study.
Part 1 study: Dose escalation study (conducted in Japan)
Breast cancer or gastric adenocarcinoma/esophagogastric junction adenocarcinoma
Objective response rate (ORR; complete response (CR)+partial response (PR)).
Disease control rate (DCR; CR+PR+stable disease (SD)).

[2] = tested on: HER2-positive human breast cancer ST1616B/TDR; details: mouse, in vivo
Procedure: (§1) Mouse: 6- to 12-week-old female immunodeficient Crl:Nu(Ncr)-Foxn1^Nu mice (Charles River Laboratories Japan, Inc.) were subjected to the experiment.
(§2) Assay and calculation expression: The major axis and minor axis of tumor were measured twice a week by using an electronic digital caliper, and the tumor volume (mm^3) was calculated. The calculation expression is as shown below. Tumor volume (mm^3)=0.52×Major axis (mm)×[Minor axis ([…])]^2
(§3) Tumor excised from a patient with HER2-positive breast cancer that acquired resistance after treatment with T-DM1 was maintained at several passages by transplantation to female immunodeficient mice. […] ST1616B/TDR is tumor derived from a patient who received T-DM1 by continuous administration for 13 months, and ST1360B/TDR is a tumor derived from a patient who received T-DM1 by continuous administration for 3 months.
(§4) A tumor section of the solid tumor was subcutaneously transplanted to the side of the body of each female immunodeficient mouse, and the mice were randomly grouped when the tumor volume reached about 200 mm^3.

[3] = tested on: HER2-positive human breast cancer ST1360B/TDR; details: mouse, in vivo
Procedure: as §1, §2, §3, §4

topoisomerase I = target: T1, topoisomerase I (Homo sapiens, UniProt P11387); details: cited from earlier work
T1 sequence (P11387 1-765): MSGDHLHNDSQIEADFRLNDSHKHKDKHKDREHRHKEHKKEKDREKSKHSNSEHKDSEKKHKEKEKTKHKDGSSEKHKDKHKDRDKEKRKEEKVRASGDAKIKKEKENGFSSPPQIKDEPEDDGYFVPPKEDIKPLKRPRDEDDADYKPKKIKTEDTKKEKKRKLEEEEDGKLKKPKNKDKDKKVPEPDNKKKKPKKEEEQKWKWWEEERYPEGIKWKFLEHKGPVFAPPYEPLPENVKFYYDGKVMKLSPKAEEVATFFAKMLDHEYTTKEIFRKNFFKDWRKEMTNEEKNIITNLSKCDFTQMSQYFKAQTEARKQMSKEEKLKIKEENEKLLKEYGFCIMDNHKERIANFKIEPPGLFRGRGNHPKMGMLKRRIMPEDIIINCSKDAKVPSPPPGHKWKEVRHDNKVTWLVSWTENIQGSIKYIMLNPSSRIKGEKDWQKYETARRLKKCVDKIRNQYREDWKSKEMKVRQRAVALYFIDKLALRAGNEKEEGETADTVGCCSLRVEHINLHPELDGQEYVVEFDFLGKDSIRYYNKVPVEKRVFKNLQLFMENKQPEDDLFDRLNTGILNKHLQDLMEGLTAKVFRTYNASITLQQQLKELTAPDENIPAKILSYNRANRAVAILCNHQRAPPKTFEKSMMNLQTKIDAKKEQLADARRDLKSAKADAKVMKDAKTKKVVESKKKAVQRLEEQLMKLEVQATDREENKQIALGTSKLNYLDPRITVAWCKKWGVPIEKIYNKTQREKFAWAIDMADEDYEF

With T-DM1 the DCR [1] was 64%, the ORR [1] was 18% and the “growth of the tumor (tumor volume)” value [2] was “did not inhibit the growth”. For the same molecule, the “growth of the tumor (tumor volume)” value [3] was “did not inhibit the growth”.

In the case of `CC[C@@]1(O)C(=O)OCc2c1cc1n(c2=O)Cc2c-1nc1cc(F)c(C)c3c1c2[C@@H](NC(=O)CO)CC3` [Compound 1], the “topoisomerase I inhibitory effect” value (topoisomerase I; Ogitani Y. et al., Clinical Cancer Research, 2016) is given as “confirmed to have a topoisomerase I inhibitory effect”.

In the case of `CC[C@@]1(O)C(=O)OCc2c1cc1n(c2=O)Cc2c-1nc1cc(F)c(C)c3c1c2[C@@H](N)CC3` [exatecan, (1S,9S)-1-amino-9-ethyl-5-fluoro-1,2,3,9,12,15-hexahydro-9-hydroxy-4-methyl-10H,13H-benzo[de]pyrano[3′,4′:6,7]indolizino[1,2-b]quinolin-10,13-dione], the “inhibitory activity on topoisomerase I” value (topoisomerase I; compared with SN-38 and topotecan) is listed as “higher than SN-38”.
